Experimental data: PubChem BioAssay AID1259408 (Genetic Toxicology Data Bank (GENE-TOX), 2018)
Calls of active or inactive are those of the source. How the calls were made is not given here.

Tested on: GENE-TOX genotoxicity assays, various organisms and cells
Assay: GENE-TOX mutagenicity studies
Details: for call: Assay Type: In vivo carcinogenicity studies
[1] = Species/Cell Type: Escherichia coli polA (W3119 vs P3478), Assay Type: Rec-assay, DNA effects (bacterial DNA repair), Assay Code: RE1-, Evaluation Type: Evaluation A (Pre-1980)
[2] = Species/Cell Type: Syrian hamster embryo (SHE) cells, Assay Type: Cell transformation, clonal assay, Assay Code: CTC+, Evaluation Type: Evaluation A (Pre-1980)
[3] = Species/Cell Type: Salmonella typhimurium (one or more of the five standard strains: TA98, TA100, TA1535, TA1537, and TA1538), Assay Type: Histidine reverse gene mutation, Ames assay, Assay Code: SALT, Evaluation Type: Evaluation A (Pre-1980)
[4] = Species/Cell Type: Escherichia coli polA (W3119 vs P3478), Assay Type: Rec-assay, DNA effects (bacterial DNA repair), Assay Code: RE1+, Evaluation Type: Evaluation A (Pre-1980)
[5] = Species/Cell Type: Human lymphocytes, Assay Type: Sister-chromatid exchange (SCE) in vitro, Assay Code: SCLT, Evaluation Type: Evaluation B (Post-1980)
[6] = Species/Cell Type: Human, Assay Type: Sister-chromatid exchange (SCE) in vitro, Assay Code: SC1T, Evaluation Type: Evaluation B (Post-1980)
[7] = Species/Cell Type: Saccharomyces cerevisiae, Assay Type: Mitotic recombination or gene conversion, Assay Code: YEH+, Evaluation Type: Evaluation A (Pre-1980)
[8] = Species/Cell Type: Nonhuman, Assay Type: Sister-chromatid exchange (SCE) in vitro, Assay Code: SC2+, Evaluation Type: Evaluation B (Post-1980)
[9] = Species/Cell Type: Salmonella typhimurium (one or more of the five standard strains: TA98, TA100, TA1535, TA1537, and TA1538), Assay Type: Histidine reverse gene mutation, Ames assay, Assay Code: SAL+, Evaluation Type: Evaluation A (Pre-1980)
[10] = Species/Cell Type: Chinese hamster lung (V79) cells, Assay Type: Forward gene mutation at the HPRT or ouabain locus, Assay Code: V79+, Evaluation Type: Evaluation A (Pre-1980)
[11] = Species/Cell Type: Drosophila melanogaster, Assay Type: Sex-linked recessive lethal gene mutation, Assay Code: SRL+, Evaluation Type: Evaluation A (Pre-1980)
[12] = Species/Cell Type: Escherichia coli WP2, Assay Type: Tryptophan reverse gene mutation, Assay Code: WP2+, Evaluation Type: Evaluation A (Pre-1980)

CC[C@H]1OC(=O)[C@H](C)[C@@H](O[C@H]2C[C@@](C)(OC)[C@@H](O)[C@H](C)O2)[C@H](C)[C@@H](O[C@@H]2O[C@H](C)C[C@H](N(C)C)[C@H]2O)[C@](C)(O)C[C@@H](C)C(=O)[C@H](C)[C@@H](O)[C@]1(C)O
mutagenic call [1]: inactive; negative

CC1C[C@@H]2CCC[C@H]2[C@@H]2CCC3CCCC[C@@H]3[C@@H]12 (stereo partly specified)
mutagenic call [2]: active; positive

Cc1cc2c(c3ccc4ccccc4c13)CCCC2C (stereo unspecified)
mutagenic call [3]: no conclusion

BrCCCCCBr
mutagenic call [4]: active; positive

Oc1c(Oc2ccc(Cl)cc2Cl)cc(Cl)c(Cl)c1Cl
mutagenic call [5]: no conclusion
mutagenic call [6]: no conclusion
mutagenic call (Species/Cell Type: Mouse, Sex: Female, Assay Type: Spot test, gene mutation, Assay Code: MSTT, Evaluation Type: Evaluation A (Pre-1980)): no conclusion
mutagenic call (Species/Cell Type: Saccharomyces cerevisiae, Assay Type: Forward gene mutation, Assay Code: YEF+, Evaluation Type: Evaluation A (Pre-1980)): active; positive
mutagenic call (Species/Cell Type: Saccharomyces cerevisiae, Assay Type: Mitotic recombination or gene conversion, Assay Code: YEC-, Evaluation Type: Evaluation A (Pre-1980)): inactive; negative
mutagenic call [7]: active; positive

N#Cc1cccc2c([N+](=O)[O-])cccc12
mutagenic call (Species/Cell Type: Bacillus subtilis (H17 vs M45T), Assay Type: Rec-assay, spot test, DNA effects (bacterial DNA repair), Assay Code: REXT, Evaluation Type: Evaluation A (Pre-1980)): no conclusion
mutagenic call (Species/Cell Type: Escherichia coli WP2, Assay Type: Tryptophan reverse gene mutation, Assay Code: WP2-, Evaluation Type: Evaluation A (Pre-1980)): inactive; negative
mutagenic call (Species/Cell Type: Escherichia coli WP2 UVRA, Assay Type: Tryptophan reverse gene mutation, Assay Code: WPU+, Evaluation Type: Evaluation A (Pre-1980)): active; positive
mutagenic call [8]: active; positive
mutagenic call [9]: active; positive

CC(=O)OC[C@H]1OC(OC(C)=O)[C@H](NC(=O)N(C)N=O)[C@@H](OC(C)=O)[C@@H]1OC(C)=O (stereo partly specified)
mutagenic call [10]: active; positive

Cn1cnc2ncn(C)c2c1=O
mutagenic call (Species/Cell Type: Allium cepa, Assay Type: Chromosome aberrations, Assay Code: ALC-, Evaluation Type: Evaluation A (Pre-1980)): inactive; negative

CCCCCN(CCCCC)N=O
mutagenic call [10]: active; positive
mutagenic call (Species/Cell Type: Salmonella typhimurium (one or more of the five standard strains: TA98, TA100, TA1535, TA1537, and TA1538), Assay Type: Histidine reverse gene mutation, Ames assay, Assay Code: SAL+*, Activation: With metabolic activation, Evaluation Type: Evaluation A (Pre-1980)): active; positive

CC(=O)OC(c1ccccc1)N(C)N=O (stereo unspecified)
mutagenic call [9]: active; positive

CCCCS(=O)(=O)OC
mutagenic call (Species/Cell Type: Glycine max (soybean), Assay Type: Gene mutation, Assay Code: GLM+, Evaluation Type: Evaluation A (Pre-1980)): active; positive

CCNC1(c2ccccc2)CCCCC1
mutagenic call (Species/Cell Type: Syrian hamster embryo (SA7/SHE) cells, Assay Type: Cell transformation, viral enhanced, Assay Code: CT7+, Evaluation Type: Evaluation A (Pre-1980)): active; positive

c1ccc2c(c1)Sc1ccccc1N2CCCN1CCNCC1
mutagenic call [5]: no conclusion
mutagenic call [6]: no conclusion

C[N+](C)(C)CCCl
call (Species/Cell Type: Nonhuman, Assay Code: CCG-, Evaluation Type: Evaluation A (Pre-1980)): inactive; negative
mutagenic call (Species/Cell Type: Vicia faba, Assay Type: Chromosome aberrations, Assay Code: VIC+D, Dose Response: With dose response, Evaluation Type: Evaluation A (Pre-1980)): active; positive

O.O.O.O.O=C([O-])[O-].[Ni+2].[Ni].[Ni]
mutagenic call [8]: active; positive

Cc1cc(N(CCCl)CCCl)ccc1N=Nc1ccccc1C(=O)O
mutagenic call [11]: active; positive

C(=C\c1ccccc1)/c1ccccc1
mutagenic call (Species/Cell Type: Salmonella typhimurium (one or more of the five standard strains: TA98, TA100, TA1535, TA1537, and TA1538), Assay Type: Histidine reverse gene mutation, Ames assay, Assay Code: SAL-, Evaluation Type: Evaluation A (Pre-1980)): inactive; negative

CCCCCCCCCCCCCCCCCC(=O)O
mutagenic call [1]: inactive; negative

CN(C)c1ccc(/C=C/c2ccccc2)cc1
mutagenic call (Species/Cell Type: Drosophila melanogaster, Assay Type: Sex-linked recessive lethal gene mutation, Assay Code: SRLT, Evaluation Type: Evaluation A (Pre-1980)): no conclusion

O=C1c2ccccc2C(=O)N1SC(Cl)(Cl)Cl
mutagenic call (Species/Cell Type: Bacillus subtilis (H17 vs M45), Assay Type: Rec-assay, spot test, DNA effects (bacterial DNA repair), Assay Code: REWT, Evaluation Type: Evaluation A (Pre-1980)): no conclusion
mutagenic call (Species/Cell Type: Chinese hamster ovary (CHO) cells, Assay Type: Forward gene mutation at the HPRT locus, Assay Code: CHO+, Evaluation Type: Evaluation B (Post-1980)): active; positive
mutagenic call [11]: active; positive
mutagenic call [12]: active; positive
mutagenic call (Species/Cell Type: Escherichia coli WP2 UVRA, Assay Type: Tryptophan reverse gene mutation, Assay Code: WPU+/-*, Activation: With metabolic activation, Evaluation Type: Evaluation A (Pre-1980)): inactive; positive without activation, negative with activation
mutagenic call [4]: active; positive
mutagenic call (Species/Cell Type: Human diploid fibroblasts, Assay Type: Unscheduled DNA synthesis (UDS) in vitro, DNA effects, Assay Code: UDH-, Evaluation Type: Evaluation A (Pre-1980)): inactive; negative
mutagenic call (Species/Cell Type: Rodents, Sex: Male, Assay Type: Dominant lethal test, Assay Code: DLTT, Evaluation Type: Evaluation A (Pre-1980)): no conclusion
mutagenic call (Species/Cell Type: Saccharomyces cerevisiae, Assay Type: Mitotic recombination or gene conversion, Assay Code: YEC+, Evaluation Type: Evaluation A (Pre-1980)): active; positive
mutagenic call [7]: active; positive
mutagenic call [9]: active; positive
mutagenic call (Species/Cell Type: Salmonella typhimurium, Assay Type: Forward and reverse gene mutation, host-mediated assay, Assay Code: HMA-, Evaluation Type: Evaluation A (Pre-1980)): inactive; negative

Cc1cc2ccccc2c2c(F)cc3ccccc3c12
mutagenic call [3]: no conclusion

[N-]=[N+]=CC(=O)OC[C@H](N)C(=O)O
mutagenic call [12]: active; positive
mutagenic call [4]: active; positive
call (Species/Cell Type: Nonhuman, Assay Code: CCG+, Evaluation Type: Evaluation A (Pre-1980)): active; positive
mutagenic call (Species/Cell Type: Nonhuman, Assay Type: Sister-chromatid exchange (SCE) in vitro, Assay Code: SC2+D, Dose Response: With dose response, Evaluation Type: Evaluation B (Post-1980)): active; positive
mutagenic call [9]: active; positive
mutagenic call [2]: active; positive

COc1cc2ccc(=O)oc2cc1O
mutagenic call (Species/Cell Type: Allium cepa, Assay Type: Chromosome aberrations, Assay Code: ALC+D, Dose Response: With dose response, Evaluation Type: Evaluation A (Pre-1980)): active; positive

NCCc1ccc(O)c(O)c1
mutagenic call (Species/Cell Type: Human lymphocytes, Assay Type: Sister-chromatid exchange (SCE) in vitro, Assay Code: SCL-, Evaluation Type: Evaluation B (Post-1980)): inactive; negative
mutagenic call (Species/Cell Type: Human, Assay Type: Sister-chromatid exchange (SCE) in vitro, Assay Code: SC1-, Evaluation Type: Evaluation B (Post-1980)): inactive; negative
mutagenic call (Species/Cell Type: Mammalian polychromatic erythrocytes, Assay Type: Micronucleus test, chromosome aberrations, Assay Code: MNT-, Evaluation Type: Evaluation B (Post-1980)): inactive; negative

Cc1cc(C)cc(OC(=O)N(C)N=O)c1
mutagenic call (Species/Cell Type: Bacillus subtilis (H17 vs M45T), Assay Type: Rec-assay, spot test, DNA effects (bacterial DNA repair), Assay Code: REX+, Evaluation Type: Evaluation A (Pre-1980)): active; positive
mutagenic call [12]: active; positive

COc1ccc(/C=N/NC(=O)COc2ccc(Br)cc2CN2CCOCC2)cc1
mutagenic call (Species/Cell Type: Saccharomyces cerevisiae, Assay Type: Reverse gene mutation, Assay Code: YERT, Evaluation Type: Evaluation A (Pre-1980)): no conclusion

CS(=O)(=O)OCCO
mutagenic call (Species/Cell Type: Arabidopsis species, Assay Type: Gene mutation, Assay Code: ARM+D, Dose Response: With dose response, Evaluation Type: Evaluation A (Pre-1980)): active; positive
mutagenic call (Species/Cell Type: Hordeum vulgare (barley), Assay Type: Chromosome aberrations, Assay Code: HOC+D, Dose Response: With dose response, Evaluation Type: Evaluation A (Pre-1980)): active; positive

CCN(CCO)CCCNc1c2ccc(Cl)cc2nc2ccc(OC)cc12
mutagenic call (Species/Cell Type: Chinese hamster ovary (CHO) cells, Assay Type: Forward gene mutation at the HPRT locus, Assay Code: CHO-, Evaluation Type: Evaluation A (Pre-1980)): inactive; negative
mutagenic call (Species/Cell Type: Chinese hamster ovary (CHO) cells, Assay Type: Forward gene mutation at the HPRT locus, Assay Code: CHOT, Evaluation Type: Evaluation B (Post-1980)): no conclusion
